Measurements as given in patent US20260347338A1, “PYRIMIDINE/PYRIDINE DERIVATIVES OR SALTS THEREOF AND PHARMACEUTICAL COMPOSITIONS COMPRISING THE SAME” (YUHAN CORPORATION, priority 2023, published 2026).
pIC50: −log10 of the molar value. Structures can show the parent of a compound that is named as a salt.

The compounds below were run against T1, human recombinant HPK1 (Homo sapiens, UniProt Q92918) (assay: Inhibitory activity against human recombinant HPK1 (TR-FRET)). Conditions: ULight-p70S6K peptide, ATP at Km, room temperature, 1 hour, 0.32 to 1000 nM compound.
T1 construct: purchased BPS Bioscience
Assay type: biochemical
In short: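 Recombinant human HPK1 with ULight-p70S6K peptide and ATP at Km, 1 h at room temperature in HEPES pH 7.4 buffer with Mg2+, Mn2+, EGTA, DTT; compounds 0.32–1000 nM final. EDTA stop, Eu-anti-phosphopeptide TR-FRET read (665 nm); IC50 from % inhibition versus DMSO, binned A–D at 10, 50, 100 nM.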

T1 sequence (Q92918 whole entry): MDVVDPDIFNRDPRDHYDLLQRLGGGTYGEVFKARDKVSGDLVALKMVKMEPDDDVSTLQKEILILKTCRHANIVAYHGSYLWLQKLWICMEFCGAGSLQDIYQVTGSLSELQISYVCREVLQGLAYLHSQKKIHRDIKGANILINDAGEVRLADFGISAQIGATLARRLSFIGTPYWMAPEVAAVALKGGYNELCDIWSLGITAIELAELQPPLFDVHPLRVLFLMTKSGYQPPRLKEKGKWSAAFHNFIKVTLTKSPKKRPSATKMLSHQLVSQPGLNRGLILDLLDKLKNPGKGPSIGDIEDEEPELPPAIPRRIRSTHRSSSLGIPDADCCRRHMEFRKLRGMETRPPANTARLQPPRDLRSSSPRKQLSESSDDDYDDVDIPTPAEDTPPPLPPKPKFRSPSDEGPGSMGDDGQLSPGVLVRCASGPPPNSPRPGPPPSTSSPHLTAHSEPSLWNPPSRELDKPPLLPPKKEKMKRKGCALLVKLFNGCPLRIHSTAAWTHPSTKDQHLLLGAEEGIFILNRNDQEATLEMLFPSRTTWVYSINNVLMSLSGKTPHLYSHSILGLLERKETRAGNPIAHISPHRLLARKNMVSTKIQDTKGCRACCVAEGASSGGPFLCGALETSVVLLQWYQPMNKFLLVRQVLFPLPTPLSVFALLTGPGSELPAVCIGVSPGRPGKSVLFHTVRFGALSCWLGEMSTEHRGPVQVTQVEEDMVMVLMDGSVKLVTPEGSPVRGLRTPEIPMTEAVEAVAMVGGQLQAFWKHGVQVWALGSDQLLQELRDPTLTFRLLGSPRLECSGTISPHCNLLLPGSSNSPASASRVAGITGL

SMILES	pIC50
COc1cccc(F)c1-c1nccc(Nc2cc(N3CCC[C@H](O)C3)c(-c3ccc(CN4CCCC(O)C4)nc3)cn2)n1 (stereo partly drawn) [Example 49, 1-((6′-((2-(2-fluoro-6-methoxyphenyl)pyrimidin-4-yl)amino)-4′-((S)-3-hydroxypiperidin-1-yl)-[3,3′-bipyridin]-6-yl)methyl)piperidin-3-ol]	< 7.00
COc1cccc(F)c1-c1nccc(Nc2cc(N3CCC[C@H](N)C3)c(-c3cnn(CC(=O)N(C)C)c3)cn2)n1 [Example 132, (S)-2-(4-(4-(3-aminopiperidin-1-yl)-6-((2-(2-fluoro-6-methoxyphenyl)pyrimidin-4-yl)amino)pyridin-3-yl)-1H-pyrazol-1-yl)-N,N-dimethylacetamide hydrochloride]	≥ 8.00
COc1cccc(F)c1-c1nccc(Nc2cc(N3CCC[C@H](N)C3)c(-c3cnn(CCC(N)=O)c3)cn2)n1 [Example 167, (S)-3-(4-(4-(3-aminopiperidin-1-yl)-6-((2-(2-fluoro-6-methoxyphenyl)pyrimidin-4-yl)amino)pyridin-3-yl)-1H-pyrazol-1-yl)propanamide hydrochloride]	≥ 8.00
COc1cccc(F)c1-c1nccc(Nc2cc(N3CCC[C@H](N)C3)c(-c3ccc(OCCN(C)C)nc3)cn2)n1 [Example 249, (S)-4-(3-aminopiperidin-1-yl)-6′-(2-(dimethylamino)ethoxy)-N-(2-(2-fluoro-6-methoxyphenyl)pyrimidin-4-yl)-[3,3′-bipyridin]-6-amine hydrochloride]	≥ 8.00
COc1cccc(F)c1-c1nccc(Nc2cc(N3CC(O)C3)c(C#CC3CCOCC3)cn2)n1 [Example 10, 1-(2-((2-(2-fluoro-6-methoxyphenyl)pyrimidin-4-yl)amino)-5-((tetrahydro-2H-pyran-4-yl)ethynyl)pyridin-4-yl)azetidin-3-ol]	7.30 to 8.00
COc1cc(C(=O)N2CC[C@H](F)C2)cc(F)c1-c1nccc(Nc2cc(N3CCC[C@H](O)C3)c(-c3cnn(C(F)F)c3)cn2)n1 [Example 232, (4-(4-((5-(1-(difluoromethyl)-1H-pyrazol-4-yl)-4-((S)-3-hydroxypiperidin-1-yl)pyridin-2-yl)amino)pyrimidin-2-yl)-3-fluoro-5-methoxyphenyl)((S)-3-fluoropyrrolidin-1-yl)methanone]	≥ 8.00
OC1CN(Cc2csc(-c3nccc(Nc4cc(N5CCC[C@H](O)C5)c(-c5cnn(C6CCOCC6)c5)cn4)n3)c2)C1 [Example 188, (S)-1-(2-((2-(4-((3-hydroxyazetidin-1-yl)methyl)thiophen-2-yl)pyrimidin-4-yl)amino)-5-(1-(tetrahydro-2H-pyran-4-yl)-1H-pyrazol-4-yl)pyridin-4-yl)piperidin-3-ol]	7.30 to 8.00
N[C@H]1CCCN(c2cc(Nc3ccnc(-c4cc5nccnc5cc4F)n3)ncc2-c2ccc(C3CCOCC3)nc2)C1 [Example 99, (S)-4-(3-aminopiperidin-1-yl)-N-(2-(7-fluoroquinoxalin-6-yl)pyrimidin-4-yl)-6′-(tetrahydro-2H-pyran-4-yl)-[3,3′-bipyridin]-6-amine hydrochloride]	7.30 to 8.00
COc1cccc(F)c1-c1nccc(Nc2cc(N3CC[C@@H](O)[C@H](N)C3)c(-c3cnn(C(F)F)c3)cn2)n1 [Example 209, (3R,4R)-3-amino-1-(5-(1-(difluoromethyl)-1H-pyrazol-4-yl)-2-((2-(2-fluoro-6-methoxyphenyl)pyrimidin-4-yl)amino)pyridin-4-yl)piperidin-4-ol hydrochloride]	≥ 8.00
COc1cccc(F)c1-c1nc(Nc2cc(N3CCC[C@H](O)C3)c(-c3cnn(CC(F)F)c3)cn2)ccc1N [Example 179, (3S)-1-(2-((5-amino-6-(2-fluoro-6-methoxyphenyl)pyridin-2-yl)amino)-5-(1-(2,2-difluoroethyl)-1H-pyrazol-4-yl)pyridin-4-yl)piperidin-3-ol]	≥ 8.00
COc1cccc(F)c1-c1nccc(Nc2cc(N3CCC[C@H](N)C3)c(-c3ccc(C(=O)N4CCNCC4)cc3)cn2)n1 [Example 265, (S)-(4-(4-(3-aminopiperidin-1-yl)-6-((2-(2-fluoro-6-methoxyphenyl)pyrimidin-4-yl)amino)pyridin-3-yl)phenyl)(piperazin-1-yl)methanone hydrochloride]	≥ 8.00
COc1cccc(F)c1-c1nccc(Nc2cc(N3CCC[C@H](O)C3)c(-c3cnn(C(F)F)c3)cn2)n1 [Example 72, (S)-1-(5-(1-(difluoromethyl)-1H-pyrazol-4-yl)-2-((2-(2-fluoro-6-methoxyphenyl)pyrimidin-4-yl)amino)pyridin-4-yl)piperidin-3-ol]	≥ 8.00
COc1cccc(F)c1-c1nccc(Nc2cc(N3CCC[C@H](N)C3)c(-c3ccc(N4CCCCC4)nc3)cn2)n1 [Example 120, (S)-4-(3-aminopiperidin-1-yl)-N-(2-(2-fluoro-6-methoxyphenyl)pyrimidin-4-yl)-6′-(piperidin-1-yl)-[3,3′-bipyridin]-6-amine hydrochloride]	≥ 8.00
COc1cc(F)cc(F)c1-c1nccc(Nc2cc(N3CCC[C@H](N)C3)c(C#CC(C)(C)O)cn2)n1 [Example 313, (S)-4-(4-(3-aminopiperidin-1-yl)-6-((2-(2,4-difluoro-6-methoxyphenyl)pyrimidin-4-yl)amino)pyridin-3-yl)-2-methylbut-3-yn-2-ol]	≥ 8.00
COc1cccc(F)c1-c1nc(Nc2cc(N3CCC[C@H](O)C3)c(C#CC3CCOCC3)cn2)ccc1C(N)=O [Example 140, 2-(2-fluoro-6-methoxyphenyl)-6-((4-((S)-3-hydroxypiperidin-1-yl)-5-((tetrahydro-2H-pyran-4-yl)ethynyl)pyridin-2-yl)amino)nicotinamide]	≥ 8.00
COc1cccc(F)c1-c1nc(Nc2cc(N3CCC[C@H](O)C3)c(C(=O)NC3CC(F)(F)C3)cn2)ccc1[N+](=O)[O-] [Example 198, N-(3,3-difluorocyclobutyl)-6-((6-(2-fluoro-6-methoxyphenyl)-5-nitropyridin-2-yl)amino)-4-((S)-3-hydroxypiperidin-1-yl)nicotinamide]	≥ 8.00
COc1cccc(F)c1-c1nc(Nc2cc(N3CCC[C@H](O)C3)c(C(N)=O)cn2)ccc1N [Example 193, 6-((5-amino-6-(2-fluoro-6-methoxyphenyl)pyridin-2-yl)amino)-4-((S)-3-hydroxypiperidin-1-yl)nicotinamide]	≥ 8.00
COc1cccc(F)c1-c1nccc(Nc2cc(N3CCC[C@H](N)C3)c(-c3cnn([C@@H]4CCNC4)c3)cn2)n1 [Example 238, N-(4-((S)-3-aminopiperidin-1-yl)-5-(1-((R)-pyrrolidin-3-yl)-1H-pyrazol-4-yl)pyridin-2-yl)-2-(2-fluoro-6-methoxyphenyl)pyrimidin-4-amine hydrochloride]	≥ 8.00
N[C@H]1CCCN(c2cc(Nc3ccnc(-c4cc5nccnc5cc4F)n3)ncc2-c2cnn(CC(F)(F)F)c2)C1 [Example 89, (S)-N-(4-(3-aminopiperidin-1-yl)-5-(1-(2,2,2-trifluoroethyl)-1H-pyrazol-4-yl)pyridin-2-yl)-2-(7-fluoroquinoxalin-6-yl)pyrimidin-4-amine hydrochloride]	≥ 8.00
COc1cc(C(=O)N2CCC(F)(F)C2)cc(F)c1-c1nccc(Nc2cc(N3CCC[C@H](O)C3)c(-c3cnn(C(F)F)c3)cn2)n1 [Example 234, (S)-(4-(4-((5-(1-(difluoromethyl)-1H-pyrazol-4-yl)-4-(3-hydroxypiperidin-1-yl)pyridin-2-yl)amino)pyrimidin-2-yl)-3-fluoro-5-methoxyphenyl)(3,3-difluoropyrrolidin-1-yl)methanone]	≥ 8.00
COc1cc(F)cc(F)c1-c1nc(Nc2cc(N3CCC[C@H](O)C3)c(CCC3CCOCC3)cn2)ccc1N [Example 228, (3S)-1-(2-((5-amino-6-(2,4-difluoro-6-methoxyphenyl)pyridin-2-yl)amino)-5-(2-(tetrahydro-2H-pyran-4-yl)ethyl)pyridin-4-yl)piperidin-3-ol]	7.30 to 8.00
COc1cc(F)cc(F)c1-c1nccc(Nc2cc(N3CCC[C@H](O)C3)c(C#Cc3cnn(CC(F)(F)F)c3)cn2)n1 [Example 220, (S)-1-(2-((2-(2,4-difluoro-6-methoxyphenyl)pyrimidin-4-yl)amino)-5-((1-(2,2,2-trifluoroethyl)-1H-pyrazol-4-yl)ethynyl)pyridin-4-yl)piperidin-3-ol]	≥ 8.00
COc1cccc(F)c1-c1nccc(Nc2cc(N3CCC[C@H](N)C3)c(-c3ccc(OC(F)(F)F)c(C)c3)cn2)n1 [Example 281, (S)-N-(4-(3-aminopiperidin-1-yl)-5-(3-methyl-4-(trifluoromethoxy)phenyl)pyridin-2-yl)-2-(2-fluoro-6-methoxyphenyl)pyrimidin-4-amine hydrochloride]	≥ 8.00
COc1cccc(F)c1-c1nc(Nc2cc(N3CC[C@H](F)[C@H](N)C3)c(-c3cnn(C(F)F)c3)cn2)ccc1C#N [Example 322, 6-((4-((3R,4S)-3-amino-4-fluoropiperidin-1-yl)-5-(1-(difluoromethyl)-1H-pyrazol-4-yl)pyridin-2-yl)amino)-2-(2-fluoro-6-methoxyphenyl)nicotinonitrile hydrochloride]	≥ 8.00
COc1cccc(F)c1-c1nccc(Nc2cc(N3CCC[C@H](O)C3)c(C#CC3CCOCC3)cn2)n1 [Example 11, (S)-1-(2-((2-(2-fluoro-6-methoxyphenyl)pyrimidin-4-yl)amino)-5-((tetrahydro-2H-pyran-4-yl)ethynyl)pyridin-4-yl)piperidin-3-ol]	≥ 8.00
COc1cccc(F)c1-c1nccc(Nc2cc(N3CCC[C@H](N)C3)c(-c3ccc(F)c(C)c3)cn2)n1 [Example 282, (S)-N-(4-(3-aminopiperidin-1-yl)-5-(4-fluoro-3-methylphenyl)pyridin-2-yl)-2-(2-fluoro-6-methoxyphenyl)pyrimidin-4-amine hydrochloride]	≥ 8.00
